Test results reported in US12286418B2, “Compounds and methods for treating or preventing bacterial infections” (priority 2019, dated 2025).

Target: OXA-48 (Klebsiella pneumoniae, UniProt Q6XEC0)
Assay: OXA-48 inhibition assay using nitrocefin as reporter
Format: biochemical
Set-up: His-tag (N, cleaved yes); made in house; host or cells: E. coli BL21(DE3), pET28a
Procedure: Nitrocefin, a chromogenic β-lactam substrate, was used as a reporter in all inhibition assays with the various OXA enzymes and various compounds. Nitrocefin is not stable in aqueous solution long-term. For these assays, nitrocefin stocks were prepared in DMSO, stored at −20° C. and used within 2 weeks of dissolving. To avoid freeze-thawing, fresh stocks were always used. The Km of nitrocefin was determined prior to inhibition assays by performing steady state kinetics. Assays were performed using a DU800 spectrophotometer at room temperature in 50 mM HEPES pH 7.5, 15 mM NaHCO3, and 0.02% tween 20 buffer. Hydrolyzed nitrocefin was detected at 482 nm. For a single experiment, a series of at least 5 nitrocefin concentrations were tested against the given enzyme in duplicate and the initial velocities were measured and fit to the Michaelis-Menten equation. Experiments were repeated twice, and error reported is the standard error of the mean.
Compounds were tested for inhibition of a given OXA enzyme from hydrolyzing nitrocefin using a Tecan plate reader. […] A control with no compound was included in each run. For each compound concentration, the velocity of nitrocefin hydrolysis was determined at 482 nm and fit to the Morrison equation. […] The average Ki of separate experiments, each of which consisted of duplicate runs, is reported and error was quantified as the standard deviation.
The activity of these derivatives was assessed using inhibition assays with purified OXA-48. Compounds were tested for the ability to inhibit OXA-48 from hydrolyzing nitrocefin, a chromogenic β-lactam substrate routinely used in β-lactamase inhibition assays. Nitrocefin contains a conjugated ring system that is readily hydrolyzed and produces a visible color shift from yellow to red upon hydrolysis (O'Callaghan, et al., 1972, Antimicrob. Agents Chemother. 1:283-288). The rate of nitrocefin hydrolysis in the presence of a constant amount of OXA-48 and increasing concentrations of a given compound of interest was monitored at 482 nm. These rates were plotted against compound concentration to determine the inhibition constant (Ki) against OXA-48. […] SPR was performed using 6×-His-OXA-48 enzyme that was amine-coupled on a Ni-NTA Chip. Meropenem, which covalently binds and inhibits OXA-48, was used as a positive control.

Chain of OXA-48 (Q6XEC0 23-265, looked up): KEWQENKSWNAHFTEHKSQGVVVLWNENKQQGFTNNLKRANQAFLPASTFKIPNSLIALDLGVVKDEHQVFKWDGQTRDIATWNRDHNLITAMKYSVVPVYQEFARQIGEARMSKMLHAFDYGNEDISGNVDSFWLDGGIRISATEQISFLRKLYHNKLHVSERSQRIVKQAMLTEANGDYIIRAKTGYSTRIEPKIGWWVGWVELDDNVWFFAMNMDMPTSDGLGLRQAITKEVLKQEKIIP

## CCOc1ccccc1N1CCN(c2ncnc(N3CCC(C(=O)O)CC3)n2)CC1 [CDD-97, 1-(4-(4-(2-ethoxyphenyl)piperazin-1-yl)-1,3,5-triazin-2-yl)piperidine-4-carboxylic acid]
Purified OXA-48, compared with CDD-97 where a derivative
  potency/activity against OXA-48 in words: sub-micromolar Ki
Purified OXA-48, nitrocefin hydrolysis, Morrison fit
  Ki: 530 ± 80 nM
